Reference: patent publication US20130059920A1, “HYDROXYTYROSOL BENEFITS MUSCLE DIFFERENTIATION AND MUSCLE CONTRACTION AND RELAXATION” (DSM IP ASSETS, B.V., priority 2009, published 2013)

How the values were obtained:
[1] = Endurance capacity, treadmill running to exhaustion after 8 weeks long-term exercise (LTE); format: in vivo, Sprague-Dawley rats; conditions: exercise (LTE) rats, 25 mg/kg/day by gavage
Procedure: Sprague-Dawley male rats were purchased from a commercial breeder (SLAC, Shanghai). The rats were housed in a temperature—(22-28° C.) and humidity—(60%) controlled animal room and maintained on a 12-h light/12-h dark cycle (light on from 08:00 a.m. to 08:00 p.m.) with free access to food and water throughout the experiments. […] rats weighing 180-200 g were used. At the beginning of experiments, male rats were selected by one week running exercise at low speed (10 m/min, 20 min/day) and those high exercise activity rats were chosen for the experiments. Rats were randomly divided into four groups: Sedentary, Sedentary with HT supplement (25 mg/kg/day), Endurance exercise and Endurance exercise with HT supplement (25 mg/kg/day). HT was administrated by gavage 45 min before exercise program for each animal. Rats were run on a motorized treadmill at a speed of 20 m/min and a grade of 5° for 1 hour per day and 6 days per week. After 8 weeks exercise, endurance capacity was measured by treadmill running to exhaustion at a speed of 30 m/min and a grade of 5°. Exhaustion was defined as the inability to maintain running and avoid sound and light irritation.

GSH and MDA in LTE rats = format: in vivo, Sprague-Dawley rats; conditions: 25 mg/kg/day, data not shown
[2] = system: genes of calcium signaling and flux; experiment: Gene chip analysis of human skeletal muscle biopsies (vastus lateralis), Human Genome U133 Plus 2.0; format: in vivo; conditions: 6 weeks, human muscle biopsy
Procedure: Three groups each n=20 were enrolled in the study. The group assignment was randomly done by subject weight across the 3 groups. Each subject received a total of 3 capsules each day over a period of 6 weeks: • Group 1—Placebo: 3 capsules with each 333 mg of modified starch • Group 2—LOW (50 mg/d hydroxytyrosol): 1 capsule with 333 mg investigational product (1 capsule with 50 mg hydroxytyrosol) and 2 capsules with each 333 mg modified starch • Group 3—HIGH (150 mg/d hydroxytyrosol): 3 capsules with each 333mg investigational product ([…])
Muscle biopsy was performed at 2 h after ingestion of the supplements as it had taken 30 min setup time before the tissue can be removed. Two skeletal muscle tissue biopsies were taken at beginning (day 1, baseline sample) of the study and at day 42. The following was assessed in skeletal muscle tissue: 1) global gene expression profile and 2) cellular factors in tissue involved in energy metabolism or other specific pathways.
A muscle biopsy (100 mg) was taken from the vastus lateralis, a thigh muscle.
The skin was cleaned with 10% povidone-iodine (Betadine Solution, Purdue Pharma L.P., Stamford, Conn.) and then anesthetized by injecting 1.5 cc of 1% Lidocaine-HCL into the skin. A 5-8 mm incision was made in the skin and subcutaneous fat, and then approximately 100 mg of muscle tissue was removed using a Bergstrom biopsy needle from the thigh musculature (Dyna Medical, London, Ont. Canada).
The biopsy was trimmed of adipose and connective tissue, weighted and separated into 25 mg and 75 mg, placed into labelled and cooled cryotubes and immediately frozen in liquid nitrogen. Samples are stored at −80° C. for subsequent analysis. The incision site will be sealed using butterfly bandages, then wrapped with a pressure pack to minimize bruising. Approximately 25 mg of muscle tissue was used to determine the effect of the olive product on the gene expression profile involved in the energy metabolism. Neither the Sponsor nor the investigator has performed genetic finger printing and has destroyed any remaining tissue after their testing has been completed.
RNA extraction from frozen tissue samples (skeletal muscle biopsies) as described above was done using Trizol method as followed:
RNA was processed using the 3′IVT Express Kit (Affymetrix, Cat. No. 901229) according to the manual.
Fragmented aRNA for each sample was hybridized onto a Human Genome U133 Plus 2.0 Gene Chip (Affymetrix, Cat. No. 900467).
All CEL files from Affymetrix were uploaded into the analysis software (Partek) using GCRMA. GCRMA is a method of converting CEL files into expression set using the Robust Multi-array Average (RMA) with the help of probe sequence and with GC-content background correction. It is a method for normalizing and summarizing probe-level intensity measurements from Affymetrix GeneChips. Three steps: Background correction, normalization, summarization.
After GCRMA preprocessing of the .CEL files, we exported the log 2-transformed expression values from Partek and imported them into the R statistics software (version 2.9.2, http://www.R-project.org). The 57 subjects for which both a pre- and a post-measurement was available were included in the analysis. We applied an ANCOVA (analysis of covariance) with the baseline measurement as covariate to each of the 54675 probesets. The aim was to compare the treatment effect between the groups, while adjusting for the individual baselines which might differ between subjects. The treatment effect between groups can thus be estimated more precisely since the subject-to-subject variability can be separated from the within-subject variability. The baseline and the end-measurements correlated well with each other within the subjects. […]

OCCc1ccc(O)c(O)c1 [hydroxytyrosol, 3,4-dihydroxyphenylethanol]
improvement of endurance capacity [1]: 35%
GSH (GSH and MDA in LTE rats): no effect
MDA (GSH and MDA in LTE rats): no effect
baseline-corrected fold-change vs placebo: ATPase, Ca++ transporting, cardiac muscle, fast twitch 1 ([2]; 50 mg HT/d): 1.11
baseline-corrected fold-change vs placebo: ATPase, Ca++ transporting, plasma membrane 2 ([2]; 50 mg HT/d): 1.06
baseline-corrected fold-change vs placebo: ATPase, Ca++ transporting, plasma membrane 4 ([2]; 50 mg HT/d): 1.10
baseline-corrected fold-change vs placebo: ATPase, Ca++ transporting, type 2C, member 1 ([2]; 50 mg HT/d): 1.07
baseline-corrected fold-change vs placebo: C2 calcium-dependent domain containing 3 ([2]; 50 mg HT/d): 1.13
baseline-corrected fold-change vs placebo: EF-hand calcium binding domain 2 ([2]; 50 mg HT/d): 1.09
baseline-corrected fold-change vs placebo: EF-hand calcium binding domain 7 ([2]; 50 mg HT/d): 1.00
baseline-corrected fold-change vs placebo: S100 calcium binding protein A4 ([2]; 50 mg HT/d): 1.07
baseline-corrected fold-change vs placebo: S100 calcium binding protein A8 ([2]; 50 mg HT/d): 1.08
baseline-corrected fold-change vs placebo: S100 calcium binding protein A10 ([2]; 50 mg HT/d): 1.06
baseline-corrected fold-change vs placebo: S100 calcium binding protein A13 ([2]; 50 mg HT/d): 1.05
baseline-corrected fold-change vs placebo: S100 calcium binding protein B ([2]; 50 mg HT/d): 1.05
baseline-corrected fold-change vs placebo: annexin A1 ([2]; 50 mg HT/d): 1.11
baseline-corrected fold-change vs placebo: annexin A2 ([2]; 50 mg HT/d): 1.13
baseline-corrected fold-change vs placebo: annexin A2 pseudogene 2 ([2]; 50 mg HT/d): 1.09
baseline-corrected fold-change vs placebo: annexin A6 ([2]; 50 mg HT/d): 1.06
baseline-corrected fold-change vs placebo: annexin A11 ([2]; 50 mg HT/d): 1.04
baseline-corrected fold-change vs placebo: cadherin, EGF LAG seven-pass G-type receptor 2 (flamingo homolog, Drosophila) ([2]; 50 mg HT/d): 1.08
baseline-corrected fold-change vs placebo: calbindin 2 ([2]; 50 mg HT/d): 1.06
baseline-corrected fold-change vs placebo: calcineurin-like phosphoesterase domain containing 1 ([2]; 50 mg HT/d): 1.11
baseline-corrected fold-change vs placebo: calcium and integrin binding family member 2 ([2]; 50 mg HT/d): 0.98
baseline-corrected fold-change vs placebo: calcium binding protein 4 ([2]; 50 mg HT/d): 1.07
baseline-corrected fold-change vs placebo: calcium binding protein 39 ([2]; 50 mg HT/d): 1.07
baseline-corrected fold-change vs placebo: calcium channel, voltage-dependent, L type, alpha 1S subunit ([2]; 50 mg HT/d): 1.03
baseline-corrected fold-change vs placebo: calcium channel, voltage-dependent, beta 1 subunit ([2]; 50 mg HT/d): 1.02
baseline-corrected fold-change vs placebo: calcium channel, voltage-dependent, gamma subunit 1 ([2]; 50 mg HT/d): 1.03
baseline-corrected fold-change vs placebo: calcium channel, voltage-dependent, gamma subunit 6 ([2]; 50 mg HT/d): 1.06
baseline-corrected fold-change vs placebo: calcium/calmodulin-dependent protein kinase II delta ([2]; 50 mg HT/d): 1.09
baseline-corrected fold-change vs placebo: calcium/calmodulin-dependent protein kinase kinase 2, beta ([2]; 50 mg HT/d): 1.11
baseline-corrected fold-change vs placebo: calmodulin 1 (phosphorylase kinase, delta) ([2]; 50 mg HT/d): 1.14
baseline-corrected fold-change vs placebo: calmodulin 3 (phosphorylase kinase, delta) ([2]; 50 mg HT/d): 1.09
baseline-corrected fold-change vs placebo: calmodulin regulated spectrin-associated protein 1 ([2]; 50 mg HT/d): 1.04
baseline-corrected fold-change vs placebo: calnexin ([2]; 50 mg HT/d): 0.98
baseline-corrected fold-change vs placebo: calpain 2, (m/II) large subunit ([2]; 50 mg HT/d): 1.04
baseline-corrected fold-change vs placebo: calpain 3, (p94) ([2]; 50 mg HT/d): 0.99
baseline-corrected fold-change vs placebo: calreticulin ([2]; 50 mg HT/d): 1.06
baseline-corrected fold-change vs placebo: protein phosphatase 3, catalytic subunit, alpha isozyme ([2]; 50 mg HT/d): 1.09
baseline-corrected fold-change vs placebo: regulator of calcineurin 1 ([2]; 50 mg HT/d): 1.07
baseline-corrected fold-change vs placebo: ryanodine receptor 3 ([2]; 50 mg HT/d): 1.23
baseline-corrected fold-change vs placebo: striatin, calmodulin binding protein 3 ([2]; 50 mg HT/d): 1.13
baseline-corrected fold-change vs placebo: ATPase, Ca++ transporting, cardiac muscle, fast twitch 1 ([2]; 150 mg HT/d): 1.196
baseline-corrected fold-change vs placebo: ATPase, Ca++ transporting, plasma membrane 2 ([2]; 150 mg HT/d): 1.174
baseline-corrected fold-change vs placebo: ATPase, Ca++ transporting, plasma membrane 4 ([2]; 150 mg HT/d): 1.023
baseline-corrected fold-change vs placebo: ATPase, Ca++ transporting, type 2C, member 1 ([2]; 150 mg HT/d): 1.080
baseline-corrected fold-change vs placebo: C2 calcium-dependent domain containing 3 ([2]; 150 mg HT/d): 1.078
baseline-corrected fold-change vs placebo: EF-hand calcium binding domain 2 ([2]; 150 mg HT/d): 1.080
baseline-corrected fold-change vs placebo: EF-hand calcium binding domain 7 ([2]; 150 mg HT/d): 1.075
baseline-corrected fold-change vs placebo: S100 calcium binding protein A4 ([2]; 150 mg HT/d): 1.114
baseline-corrected fold-change vs placebo: S100 calcium binding protein A8 ([2]; 150 mg HT/d): 1.056
baseline-corrected fold-change vs placebo: S100 calcium binding protein A10 ([2]; 150 mg HT/d): 1.045
baseline-corrected fold-change vs placebo: S100 calcium binding protein A13 ([2]; 150 mg HT/d): 1.064
baseline-corrected fold-change vs placebo: S100 calcium binding protein B ([2]; 150 mg HT/d): 1.019
baseline-corrected fold-change vs placebo: annexin A1 ([2]; 150 mg HT/d): 1.070
baseline-corrected fold-change vs placebo: annexin A2 ([2]; 150 mg HT/d): 1.047
baseline-corrected fold-change vs placebo: annexin A2 pseudogene 2 ([2]; 150 mg HT/d): 1.007
baseline-corrected fold-change vs placebo: annexin A6 ([2]; 150 mg HT/d): 1.062
baseline-corrected fold-change vs placebo: annexin A11 ([2]; 150 mg HT/d): 1.065
baseline-corrected fold-change vs placebo: cadherin, EGF LAG seven-pass G-type receptor 2 (flamingo homolog, Drosophila) ([2]; 150 mg HT/d): 1.030
baseline-corrected fold-change vs placebo: calbindin 2 ([2]; 150 mg HT/d): 1.006
baseline-corrected fold-change vs placebo: calcineurin-like phosphoesterase domain containing 1 ([2]; 150 mg HT/d): 1.070
baseline-corrected fold-change vs placebo: calcium and integrin binding family member 2 ([2]; 150 mg HT/d): 1.114
baseline-corrected fold-change vs placebo: calcium binding protein 4 ([2]; 150 mg HT/d): 1.024
baseline-corrected fold-change vs placebo: calcium binding protein 39 ([2]; 150 mg HT/d): 1.082
baseline-corrected fold-change vs placebo: calcium channel, voltage-dependent, L type, alpha 1S subunit ([2]; 150 mg HT/d): 1.080
baseline-corrected fold-change vs placebo: calcium channel, voltage-dependent, beta 1 subunit ([2]; 150 mg HT/d): 1.125
baseline-corrected fold-change vs placebo: calcium channel, voltage-dependent, gamma subunit 1 ([2]; 150 mg HT/d): 1.087
baseline-corrected fold-change vs placebo: calcium channel, voltage-dependent, gamma subunit 6 ([2]; 150 mg HT/d): 1.178
baseline-corrected fold-change vs placebo: calcium/calmodulin-dependent protein kinase II delta ([2]; 150 mg HT/d): 1.113
baseline-corrected fold-change vs placebo: calcium/calmodulin-dependent protein kinase kinase 2, beta ([2]; 150 mg HT/d): 1.033
baseline-corrected fold-change vs placebo: calmodulin 1 (phosphorylase kinase, delta) ([2]; 150 mg HT/d): 1.153
baseline-corrected fold-change vs placebo: calmodulin 3 (phosphorylase kinase, delta) ([2]; 150 mg HT/d): 1.041
baseline-corrected fold-change vs placebo: calmodulin regulated spectrin-associated protein 1 ([2]; 150 mg HT/d): 1.089
baseline-corrected fold-change vs placebo: calnexin ([2]; 150 mg HT/d): 1.066
baseline-corrected fold-change vs placebo: calpain 2, (m/II) large subunit ([2]; 150 mg HT/d): 1.053
baseline-corrected fold-change vs placebo: calpain 3, (p94) ([2]; 150 mg HT/d): 1.082
baseline-corrected fold-change vs placebo: calreticulin ([2]; 150 mg HT/d): 1.044
baseline-corrected fold-change vs placebo: protein phosphatase 3, catalytic subunit, alpha isozyme ([2]; 150 mg HT/d): 1.048
baseline-corrected fold-change vs placebo: regulator of calcineurin 1 ([2]; 150 mg HT/d): 1.009
baseline-corrected fold-change vs placebo: ryanodine receptor 3 ([2]; 150 mg HT/d): 1.355
baseline-corrected fold-change vs placebo: striatin, calmodulin binding protein 3 ([2]; 150 mg HT/d): 1.024
